The text below walks through data of patent US20090169573A1, “T-Cell Stimulatory Peptides From The Melanoma-Associated Chondroitin Sulfate Proteoglycan And Their Use” (priority 2004, published 2009).

Assay [1] relates to CD4+ T-cell clone 3. Description: IFN-γ production of CD4+ T-cell clone 3 on peptide-pulsed autologous EBV-B cells (ELISA). Format: cell-based, human.
Assay [2] deals with CD4+ T-cell clone 25. The format is cell-based, human. The settings on record: for recognition by clone 25 of overlapping 16-mer peptides: IFN-γ ELISA. Background: ELISA stands for enzyme-linked immunosorbent assay.
The subject of assay [3] is HLA-DR 11. Description: HLA restriction of clone 3: blocking antibodies and EBV-B cell lines with different HLA class II molecules. As to conditions: peptide 5 μg/ml, IFN-γ production. Format: cell-based, human. On the procedure:
FIG. 14: Autologous EBV-B cells (15,000) pulsed with 16-mer MCSP peptide (aa 1281-1296 (SEQ ID NO:48), 5 μg/ml) were used as stimulator cells in the presence of different blocking antibodies. All antibodies were used at a final concentration of 5 μg/ml each.
FIG. 15: Several EBV-B cell lines with different HLA class II molecules were pulsed with peptide MCSP1281-1296 (SEQ ID NO:48; 5 μg/ml) and tested for recognition (at 15,000 cells per well) by the CD4^+ T cell clone (4,000 cells per well).
(§1) 8. Determination of HLA restriction element utilized by MCSP-specific CD4^+ T-cell clone 25 and 3: To analyze the HLA restriction of CD4^+ T-cell clone 25 and 3, three monoclonal antibodies directed against anti-DR (L243; BD Biosciences, San Jose, USA), anti-DQ (CSPVL3; Immunotech) or anti-DP (B7/21; BD Biosciences, San Jose, USA) were used to test which one inhibited the recognition of antigen-presenting cells by the clone. First EBV-B cells (1.5×10^4 per round-bottomed microtiter plate well) were incubated for 1 h at 37° C., 8% CO2 in the presence of the peptide (SEQ ID NO:9 for clone 25, SEQ ID NO:48 for clone 3). The antibodies were added at a concentration of 5 ng/ml. The CD4^+ T-cell clone 25 or 3 was then added at 4×10^3 per well.

Assay [4] deals with CD4+ T-cells. Description: CD4+ T-cell induction with peptide-loaded dendritic cells, IFN-γ ELISA of microcultures. The format is cell-based, human.
The subject of assay [5] is CD8+ T-cells. Description: CD8+ T-cell induction with TAT-MCSP-peptide-loaded dendritic cells, IFN-γ ELISA of microcultures. As to conditions: donor 11325; long TAT-MCSP-peptide 10 μM; not with control peptide; FIG. 18.
Method: After 3 weekly restimulations microcultures were tested for their IFN-γ production when stimulated with autologous EBV-B cells loaded with the TAT-MCSP peptide (SEQ ID NO:54) or a control peptide.
Aliquots of approximately 4,000 CD8^+ T-cells from each 96-well microculture were co-incubated with 15,000 stimulator cells and after 20 h the IFN-γ concentration in the supernatant was measured by ELISA. […] Bars represent standard deviations.
In order to isolate MCSP specific CD8^+ T cells, DCs were derived from monocytes of healthy donors using IL-4 and GM-CSF and loaded with the long TAT-MCSP-peptide of SEQ ID NO:54 at 20 μg/ml overnight so that potential T-cell epitopes within this peptide could be processed and presented by the cell. DCs were matured 6 h after peptide-loading by a cytokine cocktail (IL-1β, IL-6, TNF-α, PGE2) as described in Example 3 (b). Autologous CD8^+ T-cells were stimulated with protein-loaded mature DCs in 96-well-plates on the next day (FIG. 17). […]
Autologous EBV-B cells (5×10^5) were incubated for 18-20 h at 37° C. in the presence of 10 μg/ml or 20 μg/ml (compare Figure legends) of the MCSP peptide or an irrelevant control peptide as a negative control. […] After 18-20 h, supernatants were harvested and assessed for IFN-γ content using an ELISA assay with reagents from Medgenix Diagnostics-Biosource (Fleurus, Belgium). […]
Assay [6] concerns HLA-DR11. Description: HLA restriction of clone 25: blocking antibodies and EBV-B cell lines with different HLA class II molecules. The format is cell-based, human. As to conditions: IFN-γ production. On the procedure: FIG. 6: Autologous EBV-B cells (1.5×10^4) pulsed with 1 μM of the 16-mer MCSP peptide […] (SEQ ID NO:9) were used as stimulator cells in the presence of different blocking antibodies (anti-DR, anti-DQ or anti-DP). Also a control with no antibody (no Ab) was set up. All antibodies were used at a final concentration of 5 μg/ml each.
FIG. 7: 1.5×10^4 cells of several EBV-B cell lines (LP2-, LB1981-, R12-, PV6-, AC 42- and 4800-EBV) with different HLA class II molecules (HLA-DR11 positive or HLA-DR11 negative) were pulsed/loaded for 1 h with MCSP peptide […] (SEQ ID NO:9) (1 μM, white bar) and tested for recognition by the CD4^+ T cell clone. As control, the cells were pulsed in the absence of protein (black spotted bar).
as §1
9. Determination of HLA-DR restriction element utilized by MCSP-specific CD4^+ T-cell clone 25: It was determined that cytokine secretion by the CD4^+ T-cell clone 25 occurred in response to EBV-B cells pulsed/loaded with MCSP-derived peptides restricted to HLA-DR. To further define the HLA-restriction element utilized by clone 25, additional EBV-B cell lines were used for peptide presentation as described above. In particular LP2-, LB1981-, R12-, PV6-, AC 42- and 4800-EBV which have with different HLA class II molecules (HLA-DR11 positive or HLA-DR11 negative) were used. They were pulsed/loaded for 1 h with 1 μM MCSP peptide […] […]

Where [7] appears, read: autologous EBV-B cells pulsed 1 μM, 1 h, FIG. 4.

Turning to “YARAAARQARA [SEQ ID NO:53, TAT PDT variant peptide, reference compound]”, in assay [1] (autologous EBV-B cells pulsed 5 μg/ml, 1 h, IFN-γ ELISA, FIG. 12), the “recognition by clone 3 of overlapping peptides of the 42-mer” value is “not”.

In the case of GYLVMVSRGALA [SEQ ID NO:46], in assay [1] (truncated peptides derived from SEQ ID NO:42, 5 μg/ml, IFN-γ ELISA, FIG. 13), the “recognition of truncated peptides by clone 3” value is “shortest peptide efficiently recognized”.

With ETNAVGQDVSVLFRVT [SEQ ID NO:8], in assay [2] (setting [7]), the “recognition by clone 25 of overlapping 16-mer peptides” value was “recognized”.

Consider PPSAGYLVMVSRGALA [SEQ ID NO:42], for which, in assay [3] (FIG. 14), the “recognition by clone 3 of peptide-loaded autologous EBV-B cells in presence of anti-HLA-DR antibody” value is reported as “abolished” and the “recognition by clone 3 of peptide-loaded autologous EBV-B cells in presence of antibodies against HLA-DP or HLA-DQ” value is on record as “no influence”. In addition, the “presentation of peptide to clone 3 by EBV-B cell lines with different HLA class II typings” value in assay [3] (FIG. 15) is listed as “only those expressing HLA-DR 11 were able to present the peptide to clone 3”. Also, in assay [1] (autologous EBV-B cells pulsed 5 μg/ml, 1 h, FIG. 12), the “efficiency of stimulation of clone 3 among overlapping peptides” value was “most efficiently”.

“LAQGSAMPILPANLSVETNAVGQDVSVLFRVTGALQFGELQK [SEQ ID NO:3]”: the “IFN-γ production of clone C2/25 after stimulation with peptide-loaded autologous EBV-B-cells” value in assay [2] (42 mer 5 μM overnight, not with EBV-B-cells with or without control peptide, FIG. 3) is on record as “specific IFN-γ production”. Moreover, the “number of microcultures with peptide-specific CD4+ T-cells generated” value in assay [4] (DCs loaded with the 42 mer overnight (50 μg/ml), matured by cytokine cocktail) worked out at 2. In addition, the “number of peptide-specific T-cell clones obtained” value in assay [4] (from microculture C2, limiting dilution) stood at 3.

In the case of “YARAAARQARAPPADIVFSVKSPPSAGYLVMVSRGALADEPP [SEQ ID NO:54]”, the “IFN-γ production of CD8+ T-cells from microcultures after stimulation with peptide-loaded autologous EBV-B-cells” value in assay [5] is “specific IFN-γ production”. Also, in assay [4] (DCs loaded with long TAT-MCSP-peptide at 20 μg/ml overnight, donor 11325), the “number of microcultures with peptide-specific CD4+ T-cells generated” value came out at 3. In addition, in assay [4] (from microculture F1, limiting dilution), the “number of peptide-specific T-cell clones generated” value turned out to be 3. Further, the “Interferon-γ production of clone F1/3 after stimulation with peptide-loaded autologous EBV-B-cells” value in assay [1] (long TAT-MCSP-peptide 10 μM overnight, not with EBV-B-cells with or without control peptide, FIG. 11) was “specific Interferon-γ production”.

On to VGQDVSVLFRVTGALQ [SEQ ID NO:9], for which, in assay [2] (setting [7]), the “efficiency of stimulation of clone 25 among overlapping 16-mer peptides” value is listed as “most efficiently” and the “recognition by clone 25 of overlapping 16-mer peptides” value is “recognized”. Further, the “peptide concentration found optimal to achieve CD4+ T-cell stimulation” value in assay [2] (titration experiments, clone 25) was found to be 2 µg/mL. In addition, the “presentation of peptide to clone 25 by EBV-B cell lines with different HLA class II typings” value in assay [6] (LP2-, LB1981-, R12-, PV6-, AC 42- and 4800-EBV pulsed 1 μM 1 h, FIG. 7) was “only those expressing HLA-DRB1*11 (PV6-, AC 42- and 4800-EBV) were able to present the peptide to clone 25”. For the same sequence, in assay [6] (peptide 1 μM, FIG. 6), the “recognition by clone 25 of peptide-loaded autologous EBV-B cells in presence of anti-HLA-DR antibody” value is on record as “completely abolished” and the “recognition by clone 25 of peptide-loaded autologous EBV-B cells in presence of antibodies against HLA-DP or HLA-DQ” value is reported as “no influence”.
